These are literature values, as cited in patent US20080004230A1, “SAM Riboswitch and Uses Thereof” (priority 2006, published 2008).

pKd: −log10 of the molar value. Where two headings read alike, the source gives them in different places.

For data set [1], the system named is SAM-I riboswitch. Conditions: binding preference of the riboswitch, SAM relative to SAH.
Data set [2] deals with SAM-I riboswitch RNA (yitJ homolog from B. subtilis). Conditions: read-out: binding affinity of the analog for the riboswitch RNA.

Regarding `C[S+](CC[C@H](N)C(=O)O)C[C@H]1O[C@@H](n2cnc3c(N)ncnc32)[C@H](O)[C@@H]1O` (stereo partly drawn) [SAM, S-adenosylmethionine], the “preference for SAM over SAH” value in data set [1] is given as 100 fold.

For `Nc1ncnc2c1ncn2[C@@H]1O[C@H](CSC[C@H](N)C(=O)O)[C@@H](O)[C@H]1O` [SAC, S-adenosylcysteine], in data set [2] (analog with one less side chain methylene group), the pKd is about 4.52.

On to `Nc1ncnc2c1ncn2[C@@H]1O[C@H](CSCC[C@H](N)C(=O)O)[C@@H](O)[C@H]1O` [SAH, S-adenosylhomocysteine], for which the pKd in data set [2] was 6.40.
